Data published in the supplement of paper PMC11451515.

Test system: P12-Ichikawa
Test: cell viability relative to DMSO control; higher = less cytotoxic
Conditions: 48 h
How it was run: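 NOMO1 or SEM cells were plated at 500 cells/well and P12-Ichikawa cells at 1000 cells/well in 1536-well plates (5 μl), after each leukemia line had been adapted for at least four passages in each medium. Pin dosing delivered library compounds in DMSO at 11 threefold concentrations, 47 μM to 0.79 nM. CellTiter-Glo One luminescence was read after 48 h at 37°C. Viability is reported as a per-plate percentage of DMSO wells, with cell-free wells as background.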

[1] = HPLM + 10% dialyzed FBS, 0.000781 µM
[2] = HPLM + 10% dialyzed FBS, 0.00234 µM
[3] = HPLM + 10% dialyzed FBS, 0.00702 µM
[4] = HPLM + 10% dialyzed FBS, 0.0211 µM
[5] = HPLM + 10% dialyzed FBS, 0.0632 µM
[6] = HPLM + 10% dialyzed FBS, 0.19 µM
[7] = HPLM + 10% dialyzed FBS, 0.569 µM
[8] = HPLM + 10% dialyzed FBS, 1.71 µM
[9] = HPLM + 10% dialyzed FBS, 5.12 µM
[10] = HPLM + 10% dialyzed FBS, 15.4 µM
[11] = HPLM + 10% dialyzed FBS, 46.1 µM
[12] = RPMI 5 mM glucose + 10% FBS, 0.000781 µM
[13] = RPMI 5 mM glucose + 10% FBS, 0.00234 µM
[14] = RPMI 5 mM glucose + 10% FBS, 0.00702 µM
[15] = RPMI 5 mM glucose + 10% FBS, 0.0211 µM
[16] = RPMI 5 mM glucose + 10% FBS, 0.0632 µM
[17] = RPMI 5 mM glucose + 10% FBS, 0.19 µM
[18] = RPMI 5 mM glucose + 10% FBS, 0.569 µM
[19] = RPMI 5 mM glucose + 10% FBS, 1.71 µM
[20] = RPMI 5 mM glucose + 10% FBS, 5.12 µM
[21] = RPMI 5 mM glucose + 10% FBS, 15.4 µM
[22] = RPMI 5 mM glucose + 10% FBS, 46.1 µM
[23] = RPMI 5 mM glucose + 10% dialyzed FBS, 0.000781 µM
[24] = RPMI 5 mM glucose + 10% dialyzed FBS, 0.00234 µM
[25] = RPMI 5 mM glucose + 10% dialyzed FBS, 0.00702 µM
[26] = RPMI 5 mM glucose + 10% dialyzed FBS, 0.0211 µM
[27] = RPMI 5 mM glucose + 10% dialyzed FBS, 0.0632 µM
[28] = RPMI 5 mM glucose + 10% dialyzed FBS, 0.19 µM
[29] = RPMI 5 mM glucose + 10% dialyzed FBS, 0.569 µM
[30] = RPMI 5 mM glucose + 10% dialyzed FBS, 1.71 µM
[31] = RPMI 5 mM glucose + 10% dialyzed FBS, 5.12 µM
[32] = RPMI 5 mM glucose + 10% dialyzed FBS, 15.4 µM
[33] = RPMI 5 mM glucose + 10% dialyzed FBS, 46.1 µM

Compound | cell viability [1] [%] | cell viability [2] [%] | cell viability [3] [%] | cell viability [4] [%] | cell viability [5] [%] | cell viability [6] [%] | cell viability [7] [%] | cell viability [8] [%] | cell viability [9] [%] | cell viability [10] [%] | cell viability [11] [%] | cell viability [12] [%] | cell viability [13] [%] | cell viability [14] [%] | cell viability [15] [%] | cell viability [16] [%] | cell viability [17] [%] | cell viability [18] [%] | cell viability [19] [%] | cell viability [20] [%] | cell viability [21] [%] | cell viability [22] [%] | cell viability [23] [%] | cell viability [24] [%] | cell viability [25] [%] | cell viability [26] [%] | cell viability [27] [%] | cell viability [28] [%] | cell viability [29] [%] | cell viability [30] [%] | cell viability [31] [%] | cell viability [32] [%] | cell viability [33] [%]
CNC(=O)c1ccc(N2C(=S)N(c3cnc(C#N)c(C(F)(F)F)c3)C(=O)C23CCC3)cc1F | 94.2 | 109 | 109 | 109 | 112 | 111 | 111 | 114 | 109 | 95 | 96.3 | 86.7 | 95.7 | 97.5 | 106 | 109 | 107 | 117 | 113 | 111 | 92.8 | 96.1 | 90.5 | 111 | 118 | 118 | 118 | 119 | 116 | 123 | 126 | 128 | 101
CCc1ccc(CCOc2ccc(CC3SC(=O)NC3=O)cc2)nc1 (stereo not given) | 121 | 118 | 123 | 117 | 116 | 113 | 113 | 113 | 108 | 108 | 108 | 118 | 112 | 118 | 115 | 117 | 112 | 127 | 119 | 109 | 118 | 119 | 123 | 118 | 129 | 120 | 126 | 116 | 114 | 121 | 120 | 111 | 100
CC1=C(C)C(=O)C(C(CCCCCC(=O)O)c2ccccc2)=C(C)C1=O (stereo not given) | 76.1 | 91.6 | 83.8 | 76.4 | 80.6 | 84.5 | 73.8 | 83.9 | 86.2 | 84.5 | 70.6 | 86 | 91.2 | 96.2 | 94.5 | 103 | 97.5 | 82.3 | 96.1 | 72.9 | 66.7 | 56.6 | 70.5 | 77.9 | 71.7 | 84.1 | 84.4 | 85.8 | 79.2 | 80.3 | 67.4 | 72 | 52.1
N#CCNC(=O)c1ccc(-c2ccnc(Nc3ccc(N4CCOCC4)cc3)n2)cc1 | 98.6 | 108 | 118 | 114 | 110 | 110 | 98.8 | 111 | 111 | 77.6 | 34 | 97.9 | 102 | 120 | 115 | 111 | 109 | 95.6 | 108 | 102 | 65.6 | 34 | 115 | 103 | 109 | 113 | 109 | 109 | 99.5 | 98.2 | 97.6 | 70.8 | 25.3
CC1(C)O[C@@H]2C[C@H]3[C@@H]4C[C@H](F)C5=CC(=O)C=C[C@]5(C)[C@@]4(F)[C@@H](O)C[C@]3(C)[C@]2(C(=O)CO)O1 | 107 | 110 | 99.4 | 83.8 | 71.1 | 56.4 | 69.1 | 60.7 | 52.6 | 62.9 | 53 | 106 | 99.4 | 96.4 | 78.7 | 55.4 | 53.2 | 50.2 | 53 | 51.7 | 46.4 | 43.5 | 74.9 | 103 | 94.6 | 67.9 | 50.8 | 46.7 | 47.6 | 42.5 | 40.6 | 36.8 | 30.4
